The text below walks through data of article PMC7115536 (European Journal of Medicinal Chemistry, 2011).

The conditions of data set [1]: cited from earlier work.
The next data set deals with HEL cell cultures. The note with it: human.
The nature of data set [2]: Stability studies at 37 °C in complete culture medium and CEM-SS cell extracts. It is filed as in vitro ADME. The note with it: for t1/2 cell extracts (half-life of decomposition): CEM-SS cell extracts, 0.1 mM.
Another data set concerns WT HBV. The format is cell-based.

With `Nc1ncnc2c1ncn2CCOCP(=O)(O)O` [PMEA, 9-(2-Phosphonomethoxyethyl)adenine, reference compound], the “Stability in all tested media” value in data set [1] is given as “stable”. Besides, the Minimum cytotoxic concentration in the data set on HEL cell cultures was >200 µM.
On to `C[C@H](Cn1cnc2c(N)ncnc21)OCP(=O)(O)O` [PMPA, (R)-9-(2-Phosphonomethoxypropyl)-adenine, reference compound], for which the “Stability in all tested media” value in data set [1] is on record as “stable”. The Minimum cytotoxic concentration in the data set on HEL cell cultures is >200 µM.
Regarding `Nc1ncnc2c1ncn2CCOCP(=O)([O-])[S-].[Na+].[Na+]` (stereo not shown) [S-PMEA 3, {[2-(6-Amino-9H-purin-9-yl)ethoxy]methyl}phosphonothioic acid], the Minimum cytotoxic concentration in the data set with HEL cell cultures was >200 µM. Besides, the “t1/2 cell extracts (half-life of decomposition)” value in data set [2] is given as “Stable ^c”. Moreover, the “Potency relative to PMEA (more potent)” value with WT HBV is 1.5–2.5 fold.
In the case of `C[C@H](Cn1cnc2c(N)ncnc21)OCP(=O)([O-])[S-].[Na+].[Na+]` (stereo partly drawn) [S-PMPA 4, ({[(2R)-1-(6-Amino-9H-purin-9-yl)propan-2-yl]oxy}methyl)phosphonothioic acid], the Minimum cytotoxic concentration in the data set with HEL cell cultures is >200 µM. Also, the “t1/2 cell extracts (half-life of decomposition)” value in data set [2] is “Stable ^c”. In addition, in data set [2] (complete culture medium, 24 h), the “Degradation in complete culture medium after 24 h” value stood at 20%.
